Results as given in patent publication US11034669B2, “Pyrrole and pyrazole compounds and methods of use thereof” (Nuvation Bio Inc., priority 2018, dated 2021).

Legend:
[1] = biological target: T1, GR (Homo sapiens, UniProt P04150); experiment: GR antagonist assay (GRE-LUC luciferase reporter, with 0.1 nM dexamethasone)
T1 sequence (P04150 1-777): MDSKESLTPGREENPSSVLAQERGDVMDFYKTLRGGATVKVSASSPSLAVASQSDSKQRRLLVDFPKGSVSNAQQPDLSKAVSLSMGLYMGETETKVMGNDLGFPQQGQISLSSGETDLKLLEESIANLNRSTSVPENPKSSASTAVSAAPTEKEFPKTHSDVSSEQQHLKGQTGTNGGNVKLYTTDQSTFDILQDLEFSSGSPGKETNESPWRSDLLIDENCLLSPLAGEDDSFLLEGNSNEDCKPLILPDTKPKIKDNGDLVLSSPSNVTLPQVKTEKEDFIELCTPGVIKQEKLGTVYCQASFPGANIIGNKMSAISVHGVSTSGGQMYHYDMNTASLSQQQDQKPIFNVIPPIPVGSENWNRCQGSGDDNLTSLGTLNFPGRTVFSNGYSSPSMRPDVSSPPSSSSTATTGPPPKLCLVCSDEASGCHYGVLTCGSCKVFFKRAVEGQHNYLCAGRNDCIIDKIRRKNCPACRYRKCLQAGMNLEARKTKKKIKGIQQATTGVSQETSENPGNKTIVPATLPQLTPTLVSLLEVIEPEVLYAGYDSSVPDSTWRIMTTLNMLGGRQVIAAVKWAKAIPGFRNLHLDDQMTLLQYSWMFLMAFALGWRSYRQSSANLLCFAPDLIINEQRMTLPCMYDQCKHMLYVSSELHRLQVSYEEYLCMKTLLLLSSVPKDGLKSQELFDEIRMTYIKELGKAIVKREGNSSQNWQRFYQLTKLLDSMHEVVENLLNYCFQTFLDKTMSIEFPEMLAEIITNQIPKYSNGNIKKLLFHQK
Description: COS-7 cells (ATCC, Manassas, Va.) were plated in 24 well plates in DME+5% csFBS without phenol red at 70,000 cells/well. Once the cells attached to the plates (typically after overnight incubation after plating), they were transfected in OPTIMEM medium (Life Technologies) using lipofectamine reagent (Life Technologies) with 0.25 μg GRE-LUC, 25 ng pCR3.1 GR, and 10 ng CMV-renilla LUC per well. Twenty-four hours after transfection, the cells were fed with DME+5% csFBS without phenol red (Fisher Scientific, Waltham, Mass.) and treated with the test compounds (1 μM to 10 μM dose range) in the presence of 0.1 nM dexamethasone (Sigma, St. Louis, Mo.). Sixteen to twenty-four hours after treatment, a luciferase assay was performed using the Dual Luciferase assay kit (Promega, Madison, Wis.). Firefly luciferase values were normalized to Renilla luciferase numbers.

[2] = biological target: T2, Human AR (Homo sapiens, UniProt P10275); experiment: AR antagonist assay (GRE-LUC luciferase reporter, with 0.1 nM R1881); format: cell-based; conditions: read-out: AR Antagonism IC50
T2 construct: expressed in transfected cells; host or cells: HEK-293 cells
T2 sequence (P10275 1-920): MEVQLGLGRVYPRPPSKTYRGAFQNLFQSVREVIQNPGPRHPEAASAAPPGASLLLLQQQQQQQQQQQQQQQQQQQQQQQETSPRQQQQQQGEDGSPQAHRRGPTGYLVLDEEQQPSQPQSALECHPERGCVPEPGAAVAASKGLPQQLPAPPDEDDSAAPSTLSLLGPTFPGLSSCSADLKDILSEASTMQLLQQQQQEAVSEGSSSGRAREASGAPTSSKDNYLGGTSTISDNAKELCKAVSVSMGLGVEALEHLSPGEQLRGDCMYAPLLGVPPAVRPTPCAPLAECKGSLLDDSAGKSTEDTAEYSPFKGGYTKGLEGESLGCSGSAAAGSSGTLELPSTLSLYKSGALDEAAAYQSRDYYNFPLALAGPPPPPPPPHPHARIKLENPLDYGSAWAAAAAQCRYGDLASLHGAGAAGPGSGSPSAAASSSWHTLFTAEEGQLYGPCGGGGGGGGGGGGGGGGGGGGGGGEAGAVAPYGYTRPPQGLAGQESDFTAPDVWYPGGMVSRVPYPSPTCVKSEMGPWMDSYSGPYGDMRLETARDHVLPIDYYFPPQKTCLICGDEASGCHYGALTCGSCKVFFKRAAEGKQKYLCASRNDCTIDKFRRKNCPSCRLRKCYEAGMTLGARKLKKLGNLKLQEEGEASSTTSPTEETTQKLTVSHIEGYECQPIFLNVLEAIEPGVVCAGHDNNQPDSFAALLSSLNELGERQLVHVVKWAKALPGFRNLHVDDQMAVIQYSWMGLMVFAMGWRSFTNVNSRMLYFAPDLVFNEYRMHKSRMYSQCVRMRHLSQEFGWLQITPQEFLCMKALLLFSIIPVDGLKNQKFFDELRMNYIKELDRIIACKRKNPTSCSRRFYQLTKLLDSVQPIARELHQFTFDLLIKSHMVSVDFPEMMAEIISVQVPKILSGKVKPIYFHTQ
Description: Human AR cDNA cloned into pCMV vector, GRE-LUC, and CMV-renilla-LUC were used to transfect cells. HEK-293 cells (ATCC) were plated at 120,000 cells per well of a 24 well plate in DME+5% csFBS (Fisher Scientific, Waltham, Mass.). The cells were transfected using Lipofectamine (Life Technologies, Carlsbad, Calif.) with 0.25 μg GRE-LUC, 0.010 μg CMV-LUC (renilla luciferase) and 25 ng of the AR. […] Luciferase assay was performed 48 hrs after transfection. Firefly luciferase assay values were normalized to renilla luciferase values and were graphed using graphpad prism software (La Jolla, Calif.).

[3] = tested on: LNCaP-abl cells; experiment: Cell proliferation assay, LNCaP-abl (CellTiter-Glo); format: cell-based; conditions: three days
Description: LNCaP-abl (3,000 cells/well, received from Dr. Myles Brown, Dana Farber Cancer Institute), 22RV 1 (1,000 cells/well), LNCaP (5,000 cells/well), or COS (3,000 cells/well) cells were plated in 96 well plates in 50 μl RPMI+10% FBS (Fisher Scientific, Waltham, Mass.). LNCaP, COS, and 22RV 1 cells were obtained from ATCC. Cells were treated in RPMI+10% FBS with test articles, ranging from 1 nM to 10 μM. Three days later, viable cells (LNCaP-abl, 22RV 1, and COS) were measured by CellTiter-Glo assay (Promega, Madison, Wis.). For LNCaP cells, medium containing test article was changed after 3 days of treatment, and after an additional 3 days of culture, viable cells were measured by CellTiter-Glo assay.

Row | Structure (SMILES) | IC50 [1] | IC50 [2] | cell proliferation, % of vehicle at 3 μM [3] | cell proliferation, % of vehicle at 10 μM [3]
1 | N#Cc1ccc(-c2ccn(-c3ccc(CNC(=O)c4ccccn4)c(F)c3)n2)cc1C(F)(F)F [Compound 16] | > 10 µM | > 10 µM | 89% | 98%
2 | Cc1ncsc1C(=O)NCc1ccc(-n2ccc(-c3ccc(C#N)c(C(F)(F)F)c3)n2)cc1F [Compound 15] | > 10 µM | 0.28 µM | 66% | 3%
